Reference: patent publication US12173026B2, “PRMT5 inhibitors” (Merck Sharp & Dohme LLC, priority 2018, dated 2024)
pEC50: −log10 of the molar value.

Test system: symmetric dimethylation of arginine (SDMA) of PRMT5 substrates in MCF-7 cells
Assay: PRMT5 Cell Target Engagement (TE) Assay
Type: cell-based
Details: Homo sapiens, MCF7, 72 h; MCF-7 cells treated for 3 days; nuclear SDMA by high content imaging; top concentration 10000 nM
Procedure, shortened: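 MCF-7 cells treated 3 days at 37 °C with 10-point 1:3 titration from 10000 nM top. Fixed cells stained with anti-SDMA antibody plus Alexa488 secondary and Hoechst; nuclear fluorescence quantified by high-content imaging versus DMSO wells. EC50 from 4-parameter fit of percent fluorescence vs log concentration.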

Compound	pEC50
Nc1nc2cc(C[C@@H]3CC[C@@]4(O)[C@@H]3O[C@@H](n3ccc5c(N)ncnc53)[C@@H]4O)ccc2cc1Cl [Example 67, (2R,3R,3aS,6S,6aR)-6-((2-amino-3-chloroquinolin-7-yl)methyl)-2-(4-amino-7H-pyrrolo[2,3-d]pyrimidin-7-yl)hexahydro-3aH-cyclopenta[b]furan-3,3a-diol]	8.92
Nc1nc2cc(C[C@@H]3CC[C@@]4(O)[C@@H]3O[C@@H](n3cc(F)c5c(N)ncnc53)[C@@H]4O)ccc2cc1Cl [Example 68, (2R,3R,3aS,6S,6aR)-6-((2-amino-3-chloroquinolin-7-yl)methyl)-2-(4-amino-5-fluoro-7H-pyrrolo[2,3-d]pyrimidin-7-yl)hexahydro-3aH-cyclopenta[b]furan-3,3a-diol]	8.96
Cc1cn([C@@H]2O[C@@H]3[C@H](Cc4ccc5cc(Br)c(N)nc5c4)CC[C@]3(O)[C@H]2O)c2ncnc(N)c12 [Example 70, (2R,3R,3aS,6S,6aR)-6-((2-amino-3-bromoquinolin-7-yl)methyl)-2-(4-amino-5-methyl-7H-pyrrolo[2,3-d]pyrimidin-7-yl)hexahydro-3aH-cyclopenta[b]furan-3,3a-diol 2,2,2-trifluoroacetate]	9.00
Nc1nc2cc(O[C@H]3CC[C@@]4(O)[C@@H]3O[C@@H](n3ccc5c(N)ncnc53)[C@@H]4O)ccc2cc1F [Example 71, (2R,3R,3aS,6S,6aR)-6-((2-amino-3-fluoroquinolin-7-yl)oxy)-2-(4-amino-7H-pyrrolo[2,3-d]pyrimidin-7-yl)hexahydro-3aH-cyclopenta[b]furan-3,3a-diol]	8.05
Nc1nc2cc(O[C@H]3CC[C@@]4(O)[C@@H]3O[C@@H](n3ccc5c(N)ncnc53)[C@@H]4O)ccc2cc1Cl [Example 72, (2R,3R,3aS,6S,6aR)-6-((2-amino-3-chioroquinolin-7-yl)oxy)-2-(4-amino-7H-pyrrolo[2,3-d]pyrimidin-7-yl)hexahydro-3aH-cyclopenta[b]furan-3,3a-diol]	8.92
Nc1nc2cc(O[C@H]3CC[C@@]4(O)[C@@H]3O[C@@H](n3cc(F)c5c(N)ncnc53)[C@@H]4O)ccc2cc1F [Example 73, (2R,3R,3aS,6S,6aR)-6-((2-amino-3-fluoroquinolin-7-yl)oxy)-2-(4-amino-5-fluoro-7H-pyrrolo[2,3-d]pyrimidin-7-yl)hexahydro-3aH-cyclopenta[b]furan-3,3a-diol]	8.70
Nc1nc2cc(O[C@H]3CC[C@@]4(O)[C@@H]3O[C@@H](n3cc(F)c5c(N)ncnc53)[C@@H]4O)ccc2cc1Cl [Example 74, (2R,3R,3aS,6S,6aR)-6-((2-amino-3-chloroquinolin-7-yl)oxy)-2-(4-amino-5-fluoro-7H-pyrrolo[2,3-d]pyrimidin-7-yl)hexahydro-3aH-cyclopenta[b]furan-3,3a-diol]	9.00
Nc1ncnc2c1ccn2[C@@H]1O[C@@H]2[C@@H](Oc3ccc4cc5c(nc4c3)NCC5)CC[C@]2(O)[C@H]1O [Example 75, (2R,3R,3aS,6S,6aR)-2-(4-amino-7H-pyrrolo[2,3-d]pyrimidin-7-yl)-6-((2,3-dihydro-1H-pyrrolo[2,3-b]quinolin-7-yl)oxy)hexahydro-3aH-cyclopenta[b]furan-3,3a-diol]	8.30
Nc1nc2cc(C[C@@H]3CC[C@@]4(O)[C@@H]3O[C@@H](n3ccc5c(N)ncnc53)[C@@H]4O)ccc2cc1C(F)(F)F [Example 76, (2R,3R,3aS,6S,6aR)-6-((2-amino-3-(trifluoromethyl)quinolin-7-yl)methyl)-2-(4-amino-7H-pyrrolo[2,3-d]pyrimidin-7-yl)hexahydro-3aH-cyclopenta[b]furan-3,3a-diol]	8.07
Nc1nc2cc(O[C@H]3CC[C@@]4(O)[C@@H]3O[C@@H](n3ccc5c(CO)ncnc53)[C@@H]4O)ccc2cc1Br [Example 77, (2R,3R,3aS,6S,6aR)-6-[(2-amino-3-bromoquinolin-7-yl)oxy]-2-[4-(hydroxymethyl)-7H-pyrrolo[2,3-d]pyrimidin-7-yl]hexahydro-3aH-cyclopenta[b]furan-3,3a-diol]	6.73
CC(C)(O)c1ncnc2c1ccn2[C@@H]1O[C@@H]2[C@@H](Oc3ccc4cc(Br)c(N)nc4c3)CC[C@]2(O)[C@H]1O [Example 78, (2R,3R,3aS,6S,6aR)-6-1(2-amino-3-bromoquinolin-7-yl)oxyl-2-[4-(2-hydroxypropan-2-yl)-7H-pyrrolo[2,3-d]pyrimidin-7-yl]hexahydro-3aH-cyclcopenta[b]furan-3,3a-diol]	5.22
Cc1nc(C)c2ccn([C@@H]3O[C@@H]4[C@@H](Oc5ccc6cc(Br)c(N)nc6c5)CC[C@]4(O)[C@H]3O)c2n1 [Example 80, (2R,3R,3aS,6S,6aR)-6-((2-amino-3-bromoquinolin-7-yl)oxy)-2-(2,4-dimethyl-7H-pyrrolo[2,3-d]pyrimidin-7-yl)hexahydro-3aH-cyclopenta[b]furan-3,3a-diol 2,2,2-trifluoroacetate]	7.01
Cc1nc(C)c2ccn([C@@H]3O[C@@H]4[C@H](Cc5ccc6cc(Br)c(N)nc6c5)CC[C@]4(O)[C@H]3O)c2n1 [Example 81, (2R,3R,3aS,6S,6aR)-6-((2-ammo-3-bromoquinolin-7-yl)methyl)-2-(2,4-dimethyl-7H-pyrrolo[2,3-d]pyrimidin-7-yl)hexahydro-3aH-cyclcopenta[b]furan-3,3a-diol]	8.41
CC(C)c1ncnc2c1ccn2[C@@H]1O[C@@H]2[C@H](Cc3ccc4cc(Br)c(N)nc4c3)CC[C@]2(O)[C@H]1O [Example 83, (2R,3R,3aS,6S,6aR)-6-((2-amino-3-bromoquinolin-7-yl)methyl)-2-(4-isopropyl-7H-pyrrolo[2,3-d]pyrimidin-7-yl)hexahydro-3aH-cyclopenta[b]furan-3,3a-diol]	7.39
Cc1ncnc2c1c(F)cn2[C@@H]1O[C@@H]2[C@H](Cc3ccc4cc(Br)c(N)nc4c3)CC[C@]2(O)[C@H]1O [Example 84, (2R,3R,3aS,6S,6aR)-6-((2-amino-3-bromoquinolin-7-yl)methyl)-2-(5-fluoro-4-methyl-7H-pyrrolo[2,3-d]pyrimidin-7-yl)hexahydro-3aH-cyclopenta[b]furan-3,3a-diol]	8.12
Nc1nc2cc(O[C@H]3CC[C@@]4(O)[C@@H]3O[C@@H](n3ccc5cncnc53)[C@@H]4O)ccc2cc1Br [Example 85, (2R,3R,3aS,6S,6aR)-6-((2-amino-3-bromoquinolin-7-yl)oxy)-2-(7H-pyrrolo[2,3-d]pyrimidin-7-yl)hexahydro-3aH-cyclopenta[b]furan-3,3a-diol]	7.49
Cc1ncnc2c1ccn2[C@@H]1O[C@@H]2[C@@H](Oc3ccc4cc(F)c(N)nc4c3)CC[C@]2(O)[C@H]1O [Example 86, (2R,3R,3aS,6S,6aR)-6-((2-amino-3-fluoroquinolin-7-yl)oxy)-2-(4-methyl-7H-pyrrolo[2,3-d]pyrimidin-7-yl)hexahydro-3aH-cyclopenta[b]furan-3,3a-diol]	7.43
Nc1nc2cc(C[C@@H]3CC[C@@]4(O)[C@@H]3O[C@@H](n3ccc5c(C6CC6)ncnc53)[C@@H]4O)ccc2cc1Br [Example 87, (2R,3R,3aS,6S,6aR)-6-((2-amino-3-bromoquinolin-7-yl)methyl)-2-(4-cyclopropyl-7H-pyrrolo[2,3-d]pyrimidin-7-yl)hexahydro-3aH-cyclopenta[b]furan-3,3a-diol]	7.64
Cc1ncnc2c1ccn2[C@@H]1O[C@@H]2[C@H](Cc3ccc4cc(C(F)(F)F)c(N)nc4c3)CC[C@]2(O)[C@H]1O [Example 88, (2R,3R,3aS,6S,6aR)-6-((2-amino-3-(trifluoromethyl)quinolin-7-yl)methyl)-2-(4-methyl-7H-pyrrolo[2,3-d]pyrimidin-7-yl)hexahydro-3aH-cyclopenta[b]furan-3,3a-diol]	7.60
Cc1ncnc2c1ccn2[C@@H]1O[C@@H]2[C@@H](Oc3ccc4cc5c(nc4c3)NCC5)CC[C@]2(O)[C@H]1O [Example 89, (2R,3R,3aS,6S,6aR)-6-((2,3-dihydro-1H-pyrrolo[2,3-b]quinolin-7-yl)oxy)-2-(4-methyl-7H-pyrrolo[2,3-d]pyrimidin-7-yl)hexahydro-3aH-cyclopenta[b]furan-3,3a-diol]	8.36
Cc1nc(C)c2ccn([C@@H]3O[C@@H]4[C@H](Cc5ccc6cc(F)c(N)nc6c5)CC[C@]4(O)[C@H]3O)c2n1 [Example 90, (2R,3R,3aS,6S,6aR)-6-((2-amino-3-fluoroquinolin-7-yl)methyl)-2-(2,4-dimethyl-7H-pyrrolo[2,3-d]pyrimidin-7-yl)hexahydro-3aH-cyclopenta[b]furan-3,3a-diol]	7.37
Cc1nc(C)c2ccn([C@@H]3O[C@@H]4[C@H](Cc5ccc6cc(Cl)c(N)nc6c5)CC[C@]4(O)[C@H]3O)c2n1 [Example 91, (2R,3R,3aS,6S,6aR)-6-((2-amino-3-chloroquinolin-7-yl)methyl)-2-(2,4-dimethyl-7H-pyrrolo[2,3-d]pyrimidin-7-yl)hexahydro-3aH-cyclopenta[b]furan-3,3a-diol]	8.20
CNc1ncnc2c1ccn2[C@@H]1O[C@@H]2[C@H](Cc3ccc4cc(Br)c(N)nc4c3)CC[C@]2(O)[C@H]1O [Example 92]	8.00
CNc1ncnc2c1ccn2[C@@H]1C[C@H](COc2ccc3cc(Br)c(N)nc3c2)[C@@](C)(O)[C@H]1O [Example 93, (1R,2S,3R,5R)-5-(((2-amino-3-bromoquinolin-7-yl)oxy)methyl)-1-methyl-3-(4-(methylamino)-7H-pyrrolo[2,3-d]pyrimidin-7-yl)cyclopentane-1,2-diol]	8.46
CNc1ncnc2c1ccn2[C@@H]1O[C@@H]2[C@@H](Oc3ccc4cc(Br)c(N)nc4c3)CC[C@]2(O)[C@H]1O [Example 94, (2R,3R,3aS,6S,6aR)-6-((2-amino-3-bromoquinolin-7-yl)oxy)-2-(4-(methylamino)-7H-pyrrolo[2,3-d]pyrimidin-7-yl)hexahydro-3aH-cyclopenta[b]furan-3,3a-diol]	8.28
CNc1ncnc2c1ccn2[C@@H]1O[C@@H]2[C@H](Cc3ccc4cc(F)c(N)nc4c3)CC[C@]2(O)[C@H]1O [Example 95, (2R,3R,3aS,6S,6aR)-6-((2-amino-3-fluoroquinolin-7-yl)methyl)-2-(4-(methylamino)-7H-pyrrolo[2,3-d]pyrimidin-7-yl)hexahydro-3aH-cyclopenta[b]furan-3,3a-diol]	7.33
